Test results as given in patent US20230265151A1, “GIP/GLP1 CO-AGONIST COMPOUNDS” (priority 2020, published 2023).
Where two headings read alike, the source gives them in different places.

Assays:
hGIPR = biological target: T1, hGIPR (Homo sapiens, UniProt P48546); test: Functional cAMP formation (HTRF) in HEK-293 clonal cells expressing hGIPR, 0.1% bovine casein, without or with 1.0% human serum albumin; assay type: cell-based; conditions: for EC50: 0.1% bovine casein and 1.0% human serum albumin, geometric mean
T1 construct: expressed in transfected cells
T1 sequence (P48546 22-466): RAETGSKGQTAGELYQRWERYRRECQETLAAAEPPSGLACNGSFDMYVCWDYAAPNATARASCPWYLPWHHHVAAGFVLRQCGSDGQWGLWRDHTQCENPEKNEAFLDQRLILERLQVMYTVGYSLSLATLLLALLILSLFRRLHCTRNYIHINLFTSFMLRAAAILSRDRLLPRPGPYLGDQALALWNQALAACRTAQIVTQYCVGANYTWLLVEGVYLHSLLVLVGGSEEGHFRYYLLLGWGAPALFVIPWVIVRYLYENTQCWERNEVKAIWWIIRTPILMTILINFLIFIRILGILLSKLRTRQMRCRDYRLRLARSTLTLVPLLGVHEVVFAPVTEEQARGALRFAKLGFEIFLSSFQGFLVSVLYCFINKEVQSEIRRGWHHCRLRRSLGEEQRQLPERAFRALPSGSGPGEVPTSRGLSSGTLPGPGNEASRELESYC
In short: (§1)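 Readings of the HTRF 665/620 nm ratio, which falls as cAMP rises, were converted to nM cAMP using a standard curve after 30 min peptide exposure at 37° C.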

hGLP-1R = hGLP-1R (Homo sapiens, UniProt P43220); test: Functional cAMP formation (HTRF) in HEK-293 clonal cells expressing hGLP-1R, 0.1% bovine casein, without or with 1.0% human serum albumin; assay type: cell-based; design: expressed in transfected cells; conditions: 37° C.; for EC50: 0.1% bovine casein and 1.0% human serum albumin, geometric mean
hGLP-1R, sequence (P43220 24-463): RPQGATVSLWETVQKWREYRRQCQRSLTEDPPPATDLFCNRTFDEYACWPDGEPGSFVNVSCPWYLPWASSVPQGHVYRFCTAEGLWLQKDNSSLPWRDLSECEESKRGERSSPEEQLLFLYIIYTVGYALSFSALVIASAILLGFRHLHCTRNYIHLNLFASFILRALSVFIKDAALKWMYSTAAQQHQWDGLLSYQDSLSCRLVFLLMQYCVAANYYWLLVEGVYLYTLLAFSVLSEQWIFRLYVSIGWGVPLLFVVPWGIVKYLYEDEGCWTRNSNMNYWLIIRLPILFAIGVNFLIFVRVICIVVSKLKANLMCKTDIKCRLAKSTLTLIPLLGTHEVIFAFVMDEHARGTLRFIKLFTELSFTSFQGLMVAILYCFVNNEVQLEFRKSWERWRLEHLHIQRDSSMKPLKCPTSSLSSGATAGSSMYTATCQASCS
In short: as §1

[1] = biological target: T2, human GLP-1 receptor (hGLP-1R) (Homo sapiens, UniProt P43220); test: [125I]-GLP-1 binding, SPA with membranes of HEK293 cells expressing hGLP-1R
T2 construct: expressed in transfected cells; crude membranes
T2 sequence (P43220 24-463): as above
Description: Two methods are used for the preparation of crude cell membranes.
Method 1: Frozen cell pellets are lysed on ice in hypotonic buffer containing 50 mM Tris HCl, pH 7.5, and Roche Complete™ Protease Inhibitors with EDTA. […] The homogenate is centrifuged at 4° C. at 1100 × g for 10 minutes. The supernatant is collected and stored on ice while the pellets are resuspended in homogenization buffer and rehomogenized as described above. The homogenate is centrifuged at 1100 × g for 10 minutes. The second supernatant is combined with the first supernatant and centrifuged at 35000 × g for 1 hour at 4° C. The resulting membrane pellet is resuspended in homogenization buffer containing protease inhibitors at approximately 1 to 3 mg/mL, quick frozen in liquid nitrogen and stored as aliquots in a -80° C. freezer until use.
The homogenate is centrifuged at 4° C. at 1800 × g for 15 minutes. The supernatant is collected and stored on ice while the pellets are resuspended in homogenization buffer (without DNAse I) and rehomogenized as described above. The homogenate is centrifuged at 1800 × g for 15 minutes. The second supernatant is combined with the first supernatant and centrifuged an additional time at 1800 × g for 15 minutes. The overall supernatant is then centrifuged at 25000 × g for 30 minutes at 4° C. The resulting membrane pellet is resuspended in homogenization buffer (without DNAse I) containing protease inhibitors at approximately 1 to 3 mg/mL and stored as aliquots in a -80° C. freezer until use.
The human GLP-1 receptor binding assay is performed using an SPA format with WGA beads. The binding buffer contains 25 mM HEPES, pH 7.4, 2.5 mM CaCl2, 1 mM MgCl2, 0.1% (w/v) bacitracin, 0.003% (w/v) TWEEN®-20, and Roche Complete™ Protease Inhibitors without EDTA.
Raw CPM data for concentration curves of peptides, Gcg, GLP-1, or GIP are converted to percent inhibition by subtracting nonspecific binding (binding in the presence of excess unlabeled Gcg, GLP-1, or GIP, respectively) from the individual CPM values and dividing by the total binding signal, also corrected by subtracting nonspecific binding. Data are analyzed using four-parameter (curve maximum, curve minimum, IC50, Hill slope) nonlinear regression routines (Genedata Screener, version 12.0.4, Genedata AG, Basal, Switzerland). […] Values for Ki are reported as the geometric mean, with error expressed as the standard error of the mean (SEM) and n is equal to the number of independent replicates (determined in assays performed on different days). Geometric Means are calculated as follows: […]
The Ki Ratio (Ki for native control peptide/Ki for test compound) at each receptor and each species is calculated. The Ki Ratio is a rapid indication of the apparent affinity of a peptide compared to the native control peptide.
n=⅟x means that only one value out of the total number of replicates (x) is used to express the mean. SEM is only calculated when n=2 or greater non-qualified results exist. Means are expressed as GeoMetric means with the standard error of the mean (SEM) and the number of replicates (n) indicated in parenthesis.

hGCGR = biological target: T3, hGCGR (Homo sapiens, UniProt P47871); test: Functional cAMP formation (HTRF) in HEK-293 clonal cells expressing hGCGR, 0.1% bovine casein, without or with 1.0% human serum albumin; assay type: cell-based; conditions: geometric mean
T3 construct: expressed in transfected cells
T3 sequence (P47871 26-477): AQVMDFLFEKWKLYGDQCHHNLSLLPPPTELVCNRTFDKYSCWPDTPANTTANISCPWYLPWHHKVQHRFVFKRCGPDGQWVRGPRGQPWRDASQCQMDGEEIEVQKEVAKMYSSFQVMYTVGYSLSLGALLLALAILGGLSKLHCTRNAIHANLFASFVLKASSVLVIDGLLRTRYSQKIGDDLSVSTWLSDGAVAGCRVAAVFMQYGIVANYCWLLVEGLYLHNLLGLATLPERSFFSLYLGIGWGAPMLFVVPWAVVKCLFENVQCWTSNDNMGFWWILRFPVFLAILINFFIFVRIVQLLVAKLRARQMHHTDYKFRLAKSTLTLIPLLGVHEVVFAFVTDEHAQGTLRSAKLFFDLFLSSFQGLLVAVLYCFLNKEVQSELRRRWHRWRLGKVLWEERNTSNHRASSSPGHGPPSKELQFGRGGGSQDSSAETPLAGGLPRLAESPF
In short: as §1

[2] = 37° C., read-out: hGIPR EC50, nM (SEM, n)
[3] = read-out: hGLP-1R EC50, nM (SEM, n)
[4] = human GLP-1R, geometric mean (SEM, n), read-out: Binding Affinity Ki, nM (SEM, n) hGLP-1R
[5] = 0.1% bovine casein and 1.0% human serum albumin, 37° C., read-out: hGCGR EC50, nM (SEM, n)
[6] = cAMP, incubated at 37° C., 0.1% bovine casein (no human serum albumin), read-out: hGCGR EC50, nM (SEM, n)

SMILES	EC50 (hGIPR; [2]) [nM]	EC50 (hGLP-1R; [3]) [nM]	Emax (hGLP-1R; HEK293, percent of maximal response to GLP-1(7-36)NH2, 0.1% bovine casein, arithmetic mean, read-out: hGLP-1R Emax, % ± SEM) [%]	Ki [1, 4] [nM]	Emax (hGIPR; HEK293, 0.1% bovine casein and 1.0% human serum albumin, 37° C., percent of maximal response to GIP(1-42)NH2, read-out: hGIPR Emax, % ± SEM) [%]	Emax (hGIPR; HEK293, percent of maximal response to GIP(1-42)NH2, 37° C., 0.1% bovine casein, arithmetic mean, read-out: hGIPR Emax, % ± SEM) [%]	EC50 (hGCGR; [5]) [nM]	EC50 (hGCGR; [6]) [nM]	Emax (hGIPR; HEK293, read-out: hGIPR Emax, % ± SEM, 0.1% bovine casein and 1.0% human serum albumin, 37° C., percent of maximal response to GIP(1-42)NH2) [%]	EC50 (hGIPR; hGIPR EC50, nM (SEM, n), 37° C.) [nM]	EC50 (hGCGR; hGCGR EC50, nM (SEM, n), 0.1% bovine casein and 1.0% human serum albumin, 37° C.) [nM]	EC50 (hGCGR; hGCGR EC50, nM (SEM, n), cAMP, incubated at 37° C., 0.1% bovine casein (no human serum albumin)) [nM]	EC50 (hGLP-1R; hGLP-1R EC50, nM (SEM, n)) [nM]	Ki [1] [nM]
CCCCCCCCCCCCCCCC(=O)N[C@@H](CCC(=O)NCCOCCOCC(=O)NCCOCCOCC(=O)NCCCC[C@H](NC(=O)CNC(=O)CNC(=O)[C@H](CCC(=O)O)NC(=O)[C@@H](NC(=O)[C@H](CC(C)C)NC(=O)[C@](C)(Cc1ccc(O)cc1)NC(=O)[C@@H](CCC(=O)O)NC(=O)[C@@H](NC(=O)[C@H](Cc1ccccc1)NC(=O)[C@H](CCC(=O)O)NC(=O)C(C)(C)NC(=O)[C@H](CCC(N)=O)NC(=O)[C@H](C)NC(=O)[C@H](CCCCNC(=O)COCCOCCNC(=O)COCCOCCNC(=O)CC[C@H](NC(=O)CCCCCCCCCCCCCCC)C(=O)O)NC(=O)[C@H](CCCN)NC(=O)[C@H](CC(=O)O)NC(=O)[C@H](CC(C)C)NC(=O)[C@](C)(CC(C)C)NC(=O)[C@@H](NC(=O)[C@H](CO)NC(=O)[C@H](Cc1ccncc1)NC(=O)[C@H](CC(=O)O)NC(=O)[C@H](CO)NC(=O)[C@@H](NC(=O)[C@](C)(Cc1ccccc1F)NC(=O)[C@@H](NC(=O)CNC(=O)[C@H](CCC(=O)O)NC(=O)C(C)(C)NC(=O)[C@@H](N)Cc1ccc(O)cc1)[C@@H](C)O)[C@@H](C)O)[C@@H](C)CC)[C@@H](C)CC)[C@@H](C)CC)C(=O)N[C@@H](CO)C(=O)N[C@@H](CO)C(=O)NCC(=O)N[C@@H](C)C(=O)N1CCC[C@H]1C(=O)N1CCC[C@H]1C(=O)N1CCC[C@H]1C(=O)N[C@@H](CO)C(N)=O)C(=O)O [Example 7]	0.566	2.74	95.4 ± 5.03	0.362	–	–	–	–	–	–	–	–	–	–
CCCCCCCCCCCC(=O)N[C@@H](CCC(=O)NCCOCCOCC(=O)NCCCC[C@H](NC(=O)CNC(=O)CNC(=O)[C@H](CCC(=O)O)NC(=O)[C@@H](NC(=O)[C@H](CC(C)C)NC(=O)[C@](C)(Cc1ccc(O)cc1)NC(=O)[C@@H](CCC(=O)O)NC(=O)[C@@H](NC(=O)[C@H](Cc1ccccc1)NC(=O)[C@H](CCC(=O)O)NC(=O)C(C)(C)NC(=O)[C@H](CCC(N)=O)NC(=O)[C@H](C)NC(=O)[C@H](CCCCNC(=O)COCCOCCNC(=O)CC[C@H](NC(=O)CCCCCCCCCCC)C(=O)O)NC(=O)[C@H](CCCN)NC(=O)[C@H](CC(=O)O)NC(=O)[C@H](CC(C)C)NC(=O)[C@](C)(CC(C)C)NC(=O)[C@@H](NC(=O)[C@H](CO)NC(=O)[C@H](Cc1ccncc1)NC(=O)[C@H](CC(=O)O)NC(=O)[C@H](CO)NC(=O)[C@@H](NC(=O)[C@](C)(Cc1ccccc1F)NC(=O)[C@@H](NC(=O)CNC(=O)[C@H](CCC(=O)O)NC(=O)C(C)(C)NC(=O)[C@@H](N)Cc1ccc(O)cc1)[C@@H](C)O)[C@@H](C)O)[C@@H](C)CC)[C@@H](C)CC)[C@@H](C)CC)C(=O)N[C@@H](CO)C(=O)N[C@@H](CO)C(=O)NCC(=O)N[C@@H](C)C(=O)N1CCC[C@H]1C(=O)N1CCC[C@H]1C(=O)N1CCC[C@H]1C(=O)N[C@@H](CO)C(N)=O)C(=O)O [Example 14]	0.769	9.19	–	0.286	89.5 ± 1.02	95 ± 2.32	> 9950	> 9950	–	–	–	–	–	–
CCCCCCCCCCCCCCCC(=O)N[C@@H](CCC(=O)NCCOCCOCC(=O)NCCOCCOCC(=O)NCCCC[C@H](NC(=O)[C@H](CCCN)NC(=O)[C@H](CC(=O)O)NC(=O)[C@H](CC(C)C)NC(=O)[C@](C)(CC(C)C)NC(=O)[C@@H](NC(=O)[C@H](CO)NC(=O)[C@H](Cc1ccncc1)NC(=O)[C@H](CC(=O)O)NC(=O)[C@H](CO)NC(=O)[C@@H](NC(=O)[C@](C)(Cc1ccccc1F)NC(=O)[C@@H](NC(=O)CNC(=O)[C@H](CCC(=O)O)NC(=O)C(C)(C)NC(=O)[C@@H](N)Cc1ccc(O)cc1)[C@@H](C)O)[C@@H](C)O)[C@@H](C)CC)C(=O)N[C@@H](C)C(=O)N[C@@H](CCC(N)=O)C(=O)NC(C)(C)C(=O)N[C@@H](CCCCNC(=O)COCCOCCNC(=O)COCCOCCNC(=O)CC[C@H](NC(=O)CCCCCCCCCCCCCCC)C(=O)O)C(=O)N[C@@H](Cc1ccccc1)C(=O)N[C@H](C(=O)N[C@H](CCC(=O)O)C(=O)N[C@@](C)(Cc1ccc(O)cc1)C(=O)N[C@@H](CC(C)C)C(=O)N[C@H](C(=O)N[C@@H](CCC(=O)O)C(=O)NCC(=O)NCC(=O)N1CCC[C@H]1C(=O)N[C@@H](CO)C(=O)N[C@@H](CO)C(=O)NCC(=O)N[C@@H](C)C(=O)N1CCC[C@H]1C(=O)N1CCC[C@H]1C(=O)N1CCC[C@H]1C(=O)N[C@@H](CO)C(N)=O)[C@@H](C)CC)[C@@H](C)CC)C(=O)O [Example 21]	0.302	0.806	–	0.246	–	–	> 9950	> 9950	–	–	–	–	–	–
CCCCCCCCCCCCCCCC(=O)N[C@@H](CCC(=O)NCCOCCOCC(=O)NCCOCCOCC(=O)NCCCC[C@H](NC(=O)[C@H](CCCN)NC(=O)[C@H](CC(=O)O)NC(=O)[C@H](CC(C)C)NC(=O)[C@](C)(CC(C)C)NC(=O)[C@@H](NC(=O)[C@H](CO)NC(=O)[C@H](Cc1ccncc1)NC(=O)[C@H](CC(=O)O)NC(=O)[C@H](CO)NC(=O)[C@@H](NC(=O)[C@](C)(Cc1ccccc1F)NC(=O)[C@@H](NC(=O)CNC(=O)[C@H](CCC(=O)O)NC(=O)C(C)(C)NC(=O)[C@@H](N)Cc1ccc(O)cc1)[C@@H](C)O)[C@@H](C)O)[C@@H](C)CC)C(=O)N[C@@H](C)C(=O)N[C@@H](CCC(N)=O)C(=O)NC(C)(C)C(=O)N[C@@H](CCC(=O)O)C(=O)N[C@@H](Cc1ccccc1)C(=O)N[C@H](C(=O)N[C@@H](CCCCNC(=O)COCCOCCNC(=O)COCCOCCNC(=O)CC[C@H](NC(=O)CCCCCCCCCCCCCCC)C(=O)O)C(=O)N[C@@](C)(Cc1ccc(O)cc1)C(=O)N[C@@H](CC(C)C)C(=O)N[C@H](C(=O)N[C@@H](CCC(=O)O)C(=O)NCC(=O)NCC(=O)N1CCC[C@H]1C(=O)N[C@@H](CO)C(=O)N[C@@H](CO)C(=O)NCC(=O)N[C@@H](C)C(=O)N1CCC[C@H]1C(=O)N1CCC[C@H]1C(=O)N1CCC[C@H]1C(=O)N[C@@H](CO)C(N)=O)[C@@H](C)CC)[C@@H](C)CC)C(=O)O [Example 22]	–	–	–	–	–	–	–	–	93.4 ± 0.775	0.533	> 9950	> 9950	1.5	0.301
